In patent publication US20060251705A1 (Wyeth, priority 2005, published 2006):

Tests used:
Assay type in all cases: physicochemical
[1] = Simulated Y-site compatibility: pH by potentiometric meter
Protocol: (§1) The acceptance criteria of “no incompatibility indicating change” over the four hour evaluation period is being applied to the Appearance and Description assay as well as the HIAC subvisible particulate assay. […] In addition to the Appearance and Description and HIAC testing, the pH of the solutions are monitored “for information only.” Before mixing of the two test solutions together; Appearance and Description, HIAC subvisible particulate testing, and pH are determined on each as controls.
(§2) Testing of Controls • 1. […] The remaining volumes of the two test articles are used immediately.
(§3) Preparation and Testing of Combined Solutions • 1. […] Approximately 30 ml of the combined solution is immediately removed for 0 hour Appearance and Description, subvisible particulates by HIAC and pH testing. The beaker with the remaining solution is then recovered with Parafilm and the headspace flushed with nitrogen. • 2. The sampling and testing of 30 ml aliquots is repeated after one and four hours.
pH is measured using a potentiometric meter capable of measuring pH values reproducibly within 0.02 pH units and having electrodes suitable for pH meter use.
(§4) All drug products are prepared per package insert directions; some drugs having wide therapeutic ranges are tested at multiple concentrations, and some drugs with different formulations are tested. A simulation of the mixing which would occur at an intravenous administration set Y-site is used, and the period for evaluation of compatibility exaggerated the generally short time that the two agents would be together prior to venous circulation. Test solutions before and after mixing are measured by visual observation, by light obscuration for subvisible particulates (HIAC), and by potentiometry over a four hour period.

[2] = Compatibility of tigecycline with heparin (simulated Y-site study, overall finding); conditions: common point of administration, e.g. Y-site, without saline flush
Protocol: A study is performed to determine the compatibility of tigecycline solutions with heparin. Heparin is prepared for this study as per the directions given in the package insert. The compatibility testing is performed using a “simulated Y-site” technique developed and published by Trissel et. al. “Compatibility of Fenoldopam Mesylate with other Drugs during Simulated Y-site Administration, Am. J. Health-System Pharmacy, Vol. 60, 80-85, 2003; Trissel, et. al. “Physical Compatibility of Antithymocyte Globulin (Rabbit) with Heparin Sodium and Hydrocortisone Sodium, Vol. 60, 1650-1652, 2003; Trissel et. al. “Compatibility Screening of Bivalirudin during Simulated Y-site Administration with Other Drugs, and Trissel et. al. “Compatibility of piperacillin sodium plus tazobactum with selected drugs during simulated Y-site injection, Am. J. Hosp. Pharm., Vol. 51, 672-678, 1994. […]
as §1

[3] = Simulated Y-site compatibility: subvisible particulates by light obscuration (HIAC, USP 788); conditions: for HIAC ≧10 μm / HIAC ≧25 μm: each solution before mixing, 0 Hours; for Subvisible Particulates (HIAC) ≧10 μm / Subvisible Particulates (HIAC) ≧25 μm: each before mixing, 0 hours
Excerpt: Sub-visible particulate formation may be measured by light obscuration (HIAC) as per United States Pharmacopeia USP Chapter 788 Particulate Matter in Injections.
This time period has become standard when performing these “simulated Y-site” studies, although the actual residence time for the two solutions in the administration set may not exceed eight minutes prior to entering the venous system.
The acceptance criteria of “no incompatibility indicating change” over the four hour evaluation period is being applied to the Appearance and Description assay as well as the HIAC subvisible particulate assay. Thus, for instance, formation of visible particulates or increase of subvisible particulates would indicate an incompatibility and would result in a “Y-site incompatible” classification for that diluent or drug. In addition to the Appearance and Description and HIAC testing, the pH of the solutions are monitored “for information only.” Before mixing of the two test solutions together; Appearance and Description, HIAC subvisible particulate testing, and pH are determined on each as controls.
as §2, §3
The following tests are performed immediately after sampling: • 1. Appearance and Description for color, visible particulates, and turbidity measured using a Black and White background light box with a fluorescent lamp capable of producing intensity of illumination between 2000 and 3750 lux. • 2. Sub visible particulates are measured by light obscuration (HIAC) as per United States Pharmacopeia USP Chapter 788 Particulate Matter in Injections.
as §4

[4] = Compatibility classification of intravenous diluents and drugs under simulated Y-site conditions with Tigecycline for Injection; conditions: Dobutamine final concentration 1.0 mg/ml, mixed with Tigecycline for Injection, four hour period
Protocol: as §4

[5] = Table 4: Tigecycline and Dobutamine solutions, each before mixing, 0 hours
[6] = Table 5: Tigecycline and Dopamine solutions, each before mixing, 0 hours
[7] = Table 1: Tigecycline 1 mg/mL in NS, Heparin 10 Units/ml in NS
[8] = Table 2: Tigecycline 1 mg/mL in NS, Heparin 100 Units/ml in NS
[9] = Table 4: Tigecycline and Dobutamine solutions
[10] = Table 5: Tigecycline and Dopamine solutions
[11] = Table 6: Tigecycline and Chlorpromazine solutions

| pH ([1]; Table 2: Tigecycline 1 mg/mL in NS, Heparin 100 Units/ml in NS, each solution before mixing, 0 Hours) | pH [1, 5] | pH [1, 6] | compatibility with the administration of heparin [2] | HIAC ≧10 μm [3, 7] [particles/mL] | HIAC ≧25 μm [3, 7] [particles/mL] | HIAC ≧10 μm [3, 8] [particles/mL] | HIAC ≧25 μm [3, 8] [particles/mL] | Subvisible Particulates (HIAC) ≧10 μm [3, 9] [particles/ml] | Subvisible Particulates (HIAC) ≧25 μm [3, 9] [particles/ml] | Subvisible Particulates (HIAC) ≧10 μm [3, 10] [particles/ml] | Subvisible Particulates (HIAC) ≧25 μm [3, 10] [particles/ml] | Subvisible Particulates (HIAC) ≧10 μm [3, 11] [particles/ml] | Subvisible Particulates (HIAC) ≧25 μm [3, 11] [particles/ml] | Compatibility Classification [4] | pH ([1]; Table 6: Tigecycline and Chlorpromazine solutions, each before mixing, 0 hours) | Compound |
| --- | --- | --- | --- | --- | --- | --- | --- | --- | --- | --- | --- | --- | --- | --- | --- | --- |
| 7.82 | 7.81 | 7.84 | compatible | 39.3 | 1.4 | 69.1 | 6.2 | 35.8 | 0.9 | 82.3 | 2.2 | 27.4 | 1.3 |  |  | CN(C)c1cc(NC(=O)CNC(C)(C)C)c(O)c2c1C[C@H]1C[C@H]3[C@H](N(C)C)C(O)=C(C(N)=O)C(=O)[C@@]3(O)C(O)=C1C2=O [Tigecycline, (4S,4aS,5aR,12aS)-9-[2-(tert-butylamino)acetamido]-4,7-bis(dimethylamino)-1,4,4a,5,5a,6,11,12a-octahydro-3,10,12,12a-tetrahydroxy-1,11-dioxo-2-naphthacenecarboxamide] |
|  | 4.18 |  |  |  |  |  |  | 5.9 | 0.6 |  |  |  |  | Compatible |  | CC(CCc1ccc(O)cc1)NCCc1ccc(O)c(O)c1 (stereo not drawn) [Dobutamine, reference compound] |
|  |  |  |  |  |  |  |  |  |  |  |  | 21.9 | 2.9 |  | 4.61 | CN(C)CCCN1c2ccccc2Sc2ccc(Cl)cc21 [Chlorpromazine, reference compound] |
|  |  | 3.59 |  |  |  |  |  |  |  | 3.1 | 0.1 |  |  |  |  | NCCc1ccc(O)c(O)c1 [Dopamine, reference compound] |
